Drawing on ChEMBL document CHEMBL4732086, “Targeting nuclear protein TDP-43 by cell division cycle kinase 7 inhibitors: A new therapeutic approach for amyotrophic lateral sclerosis” (Eur J Med Chem, 2021), this text covers inhibition for three molecules.

Test [1] addresses Tyrosine-protein kinase Lck (Homo sapiens) (UniProt P06239). The test is described as follows: Inhibition of recombinant human His-tagged LCK expressed in baculovirus expression system using Tyr-02 peptide as substrate at 10 uM incubated for 60 mins in presence of ATP by Z'-LYTE assay.
Test [2] has as its target T1, Dual specificity tyrosine-phosphorylation-regulated kinase 3 (Homo sapiens) (UniProt O43781).
T1 sequence (whole entry): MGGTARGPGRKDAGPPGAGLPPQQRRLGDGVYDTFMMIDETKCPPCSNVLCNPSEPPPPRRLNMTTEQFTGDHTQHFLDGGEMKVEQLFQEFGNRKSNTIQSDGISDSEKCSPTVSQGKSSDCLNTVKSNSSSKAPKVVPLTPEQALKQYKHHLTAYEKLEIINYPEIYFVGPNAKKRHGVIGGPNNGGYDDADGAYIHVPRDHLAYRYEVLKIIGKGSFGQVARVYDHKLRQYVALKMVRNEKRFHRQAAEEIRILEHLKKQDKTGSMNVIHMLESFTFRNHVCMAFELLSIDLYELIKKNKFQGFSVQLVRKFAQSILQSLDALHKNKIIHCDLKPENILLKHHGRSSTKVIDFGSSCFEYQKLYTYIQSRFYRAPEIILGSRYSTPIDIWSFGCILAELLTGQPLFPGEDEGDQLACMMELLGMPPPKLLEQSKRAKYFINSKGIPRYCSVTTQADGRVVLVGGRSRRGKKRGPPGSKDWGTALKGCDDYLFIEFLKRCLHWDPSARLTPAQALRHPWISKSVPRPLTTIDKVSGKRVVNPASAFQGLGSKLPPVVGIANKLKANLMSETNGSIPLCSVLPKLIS
The test is described as follows: Inhibition of recombinant human full length GST-tagged DYRK3 expressed in baculovirus expression system using serine/threonine-18 peptide as substrate at 10 uM incubated for 60 mins in presence of ATP by Z'-LYTE assay.

The target in test [3] is Tyrosine-protein kinase ABL1 (Homo sapiens) (UniProt P00519). The test is described as follows: Inhibition of recombinant full length human His-tagged ABL1 expressed in baculovirus expression system using tyrosine-2 peptide as substrate at 10 uM incubated for 60 mins in presence of ATP by Z'-LYTE assay.
Test [4] addresses Vascular endothelial growth factor receptor 2 (Homo sapiens) (UniProt P35968). The test is described as follows: Inhibition of recombinant human His-tagged KDR expressed in baculovirus expression system using Tyr-01 peptide as substrate at 10 uM incubated for 60 mins in presence of ATP by Z'-LYTE assay.
Test [5] deals with T2, Tyrosine-protein kinase JAK3 (Homo sapiens) (UniProt P52333).
T2 sequence (whole entry): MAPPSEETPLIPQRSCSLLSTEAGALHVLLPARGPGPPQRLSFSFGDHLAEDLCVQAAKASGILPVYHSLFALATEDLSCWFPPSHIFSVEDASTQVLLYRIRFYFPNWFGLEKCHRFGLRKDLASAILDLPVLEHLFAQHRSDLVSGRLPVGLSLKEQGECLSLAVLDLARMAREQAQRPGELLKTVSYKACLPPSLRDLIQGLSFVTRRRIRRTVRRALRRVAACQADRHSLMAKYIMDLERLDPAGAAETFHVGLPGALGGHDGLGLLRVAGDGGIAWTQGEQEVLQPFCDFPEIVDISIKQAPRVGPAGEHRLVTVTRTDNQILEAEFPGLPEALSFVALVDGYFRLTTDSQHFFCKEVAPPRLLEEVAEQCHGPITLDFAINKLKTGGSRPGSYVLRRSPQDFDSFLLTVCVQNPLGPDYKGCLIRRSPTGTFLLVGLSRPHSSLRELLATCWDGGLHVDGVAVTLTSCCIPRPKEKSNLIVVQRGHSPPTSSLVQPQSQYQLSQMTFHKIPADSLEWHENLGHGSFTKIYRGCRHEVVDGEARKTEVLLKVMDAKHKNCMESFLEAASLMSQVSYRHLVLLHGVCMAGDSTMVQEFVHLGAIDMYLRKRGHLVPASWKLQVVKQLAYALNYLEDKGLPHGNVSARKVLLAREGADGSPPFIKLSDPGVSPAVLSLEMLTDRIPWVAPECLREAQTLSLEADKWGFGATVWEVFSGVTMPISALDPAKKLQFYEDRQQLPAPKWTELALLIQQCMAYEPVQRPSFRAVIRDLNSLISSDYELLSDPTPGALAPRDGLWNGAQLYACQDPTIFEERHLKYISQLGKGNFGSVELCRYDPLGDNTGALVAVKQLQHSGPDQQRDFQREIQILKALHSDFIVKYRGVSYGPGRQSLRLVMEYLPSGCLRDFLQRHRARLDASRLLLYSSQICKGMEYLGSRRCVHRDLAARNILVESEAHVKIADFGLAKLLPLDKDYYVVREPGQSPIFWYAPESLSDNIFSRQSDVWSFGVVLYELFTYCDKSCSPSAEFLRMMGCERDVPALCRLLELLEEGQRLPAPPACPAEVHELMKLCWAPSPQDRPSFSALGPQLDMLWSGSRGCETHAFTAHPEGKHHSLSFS
As to the kind of experiment: Inhibition of recombinant human GST-tagged JAK3 expressed in baculovirus expression system using Tyr-06 peptide as substrate at 10 uM incubated for 60 mins in presence of ATP by Z'-LYTE assay.

For test [6], the target named is T3, Mitogen-activated protein kinase 13 (Homo sapiens) (UniProt O15264).
T3 sequence (whole entry): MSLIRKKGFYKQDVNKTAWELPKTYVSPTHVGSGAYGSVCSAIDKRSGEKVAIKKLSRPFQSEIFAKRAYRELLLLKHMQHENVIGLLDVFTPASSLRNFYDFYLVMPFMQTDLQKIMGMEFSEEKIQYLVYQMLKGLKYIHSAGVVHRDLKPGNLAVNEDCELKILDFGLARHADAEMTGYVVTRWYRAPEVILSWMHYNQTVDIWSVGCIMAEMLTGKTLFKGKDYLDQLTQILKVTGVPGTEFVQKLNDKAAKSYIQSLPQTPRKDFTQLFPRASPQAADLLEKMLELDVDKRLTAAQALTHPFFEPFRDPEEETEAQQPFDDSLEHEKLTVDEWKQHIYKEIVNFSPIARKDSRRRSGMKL
The test is described as follows: Inhibition of recombinant human full length His-tagged MAPK13 expressed in baculovirus expression system using serine/threonine-03 peptide as substrate at 10 uM incubated for 60 mins in presence of ATP by Z'-LYTE assay.

Test [7] concerns the target Maternal embryonic leucine zipper kinase (Homo sapiens) (UniProt Q14680). As to the kind of experiment: Inhibition of recombinant human full length GST-tagged MELK expressed in baculovirus expression system using serine/threonine-21 peptide as substrate at 10 uM by Z'-LYTE assay. To be noted: time 60.0 min.
The target in test [8] is Cell division cycle 7-related protein kinase (Homo sapiens) (UniProt O00311). As to the kind of experiment: Inhibition of human CDC7 in human SH-SY5Y cells assessed as prevention of ethacrynic acid-induced cell death preincubated for 1 hr followed by incubation with ethacrynic acid for 24 hrs measured at 10 uM by MTT assay relative to control. Type of test: cell-based. On the technique in general: Tetrazolium assays rely on reduction of a dye to a coloured formazan, in cell work by metabolically active cells.

The target of test [9] is Aurora kinase B (Homo sapiens) (UniProt Q96GD4). As to the kind of experiment: Inhibition of recombinant full length His-tagged human AURKB expressed in baculovirus expression system using Ser/Thr-01 peptide as substrate at 10 uM incubated for 60 mins in presence of ATP by Z'-LYTE assay.

Activity calls are given as the source filed them. The calls are words filed in the database; no cut-off is given here.

Vascular endothelial growth factor receptor 2 (Homo sapiens), sequence (P35968 whole entry): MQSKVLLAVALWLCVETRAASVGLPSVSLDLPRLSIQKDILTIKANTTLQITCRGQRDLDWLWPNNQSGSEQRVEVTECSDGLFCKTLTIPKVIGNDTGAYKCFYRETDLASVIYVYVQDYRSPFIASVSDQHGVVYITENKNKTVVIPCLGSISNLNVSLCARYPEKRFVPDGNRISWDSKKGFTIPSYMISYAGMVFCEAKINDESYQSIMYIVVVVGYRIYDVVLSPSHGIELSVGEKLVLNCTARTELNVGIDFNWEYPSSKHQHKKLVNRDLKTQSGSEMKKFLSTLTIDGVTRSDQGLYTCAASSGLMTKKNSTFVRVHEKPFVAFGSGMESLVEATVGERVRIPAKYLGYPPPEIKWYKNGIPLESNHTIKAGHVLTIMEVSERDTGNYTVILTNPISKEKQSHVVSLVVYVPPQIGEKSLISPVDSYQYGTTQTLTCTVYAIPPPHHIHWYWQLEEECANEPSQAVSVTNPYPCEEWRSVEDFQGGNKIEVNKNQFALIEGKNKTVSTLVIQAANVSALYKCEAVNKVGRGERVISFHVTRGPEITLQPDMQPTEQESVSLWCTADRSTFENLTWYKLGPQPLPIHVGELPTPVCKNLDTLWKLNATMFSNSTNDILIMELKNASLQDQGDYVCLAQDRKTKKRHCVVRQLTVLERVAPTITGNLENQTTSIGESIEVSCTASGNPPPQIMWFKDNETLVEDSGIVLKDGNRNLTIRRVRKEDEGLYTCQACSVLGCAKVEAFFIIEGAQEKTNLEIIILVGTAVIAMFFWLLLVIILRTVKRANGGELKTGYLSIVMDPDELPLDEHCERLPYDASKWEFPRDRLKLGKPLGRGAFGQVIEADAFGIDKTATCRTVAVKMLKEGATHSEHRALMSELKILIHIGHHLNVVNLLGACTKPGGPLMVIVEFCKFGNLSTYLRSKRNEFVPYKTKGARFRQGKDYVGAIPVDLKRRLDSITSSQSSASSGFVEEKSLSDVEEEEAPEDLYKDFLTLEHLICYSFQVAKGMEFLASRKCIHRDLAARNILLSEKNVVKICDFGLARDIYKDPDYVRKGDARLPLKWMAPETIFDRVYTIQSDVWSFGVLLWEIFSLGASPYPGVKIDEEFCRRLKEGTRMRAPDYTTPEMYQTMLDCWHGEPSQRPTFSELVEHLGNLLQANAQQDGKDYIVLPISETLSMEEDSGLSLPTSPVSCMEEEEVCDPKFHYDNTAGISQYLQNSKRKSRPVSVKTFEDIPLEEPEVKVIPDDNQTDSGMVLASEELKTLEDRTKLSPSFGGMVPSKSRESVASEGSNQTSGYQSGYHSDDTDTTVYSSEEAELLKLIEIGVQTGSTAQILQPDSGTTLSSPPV
Tyrosine-protein kinase Lck (Homo sapiens), sequence (P06239 2-509 limits assumed): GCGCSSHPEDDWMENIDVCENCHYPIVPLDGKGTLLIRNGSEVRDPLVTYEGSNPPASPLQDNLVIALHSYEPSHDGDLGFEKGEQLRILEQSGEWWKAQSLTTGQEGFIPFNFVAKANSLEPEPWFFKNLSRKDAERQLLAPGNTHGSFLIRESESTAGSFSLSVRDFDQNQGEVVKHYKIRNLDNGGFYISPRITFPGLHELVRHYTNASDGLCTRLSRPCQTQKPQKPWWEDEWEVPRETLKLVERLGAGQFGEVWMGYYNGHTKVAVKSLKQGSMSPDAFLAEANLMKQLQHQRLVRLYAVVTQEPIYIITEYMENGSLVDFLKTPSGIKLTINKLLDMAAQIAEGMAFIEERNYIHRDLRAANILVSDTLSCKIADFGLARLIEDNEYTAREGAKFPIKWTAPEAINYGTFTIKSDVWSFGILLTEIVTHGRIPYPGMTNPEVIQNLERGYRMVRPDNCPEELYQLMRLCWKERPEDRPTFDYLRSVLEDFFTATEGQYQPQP
Maternal embryonic leucine zipper kinase (Homo sapiens), sequence (Q14680 whole entry, looked up): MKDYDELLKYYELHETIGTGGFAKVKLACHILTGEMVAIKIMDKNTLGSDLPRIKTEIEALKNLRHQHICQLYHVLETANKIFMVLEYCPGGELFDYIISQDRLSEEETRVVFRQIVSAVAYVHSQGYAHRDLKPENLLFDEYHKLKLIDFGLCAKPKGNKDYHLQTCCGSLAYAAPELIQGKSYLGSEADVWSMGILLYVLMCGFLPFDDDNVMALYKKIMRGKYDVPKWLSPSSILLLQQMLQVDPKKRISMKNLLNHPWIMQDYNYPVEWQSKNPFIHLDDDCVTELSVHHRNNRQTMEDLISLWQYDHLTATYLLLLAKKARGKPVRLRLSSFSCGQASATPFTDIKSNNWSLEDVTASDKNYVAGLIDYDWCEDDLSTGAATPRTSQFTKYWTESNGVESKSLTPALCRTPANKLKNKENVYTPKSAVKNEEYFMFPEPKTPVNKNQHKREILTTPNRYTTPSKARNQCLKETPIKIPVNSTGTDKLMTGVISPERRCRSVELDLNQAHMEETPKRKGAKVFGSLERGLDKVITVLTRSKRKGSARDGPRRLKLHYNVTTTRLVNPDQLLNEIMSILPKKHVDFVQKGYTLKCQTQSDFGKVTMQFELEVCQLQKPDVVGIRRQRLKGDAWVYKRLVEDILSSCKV
Tyrosine-protein kinase ABL1 (Homo sapiens), sequence (P00519 whole entry): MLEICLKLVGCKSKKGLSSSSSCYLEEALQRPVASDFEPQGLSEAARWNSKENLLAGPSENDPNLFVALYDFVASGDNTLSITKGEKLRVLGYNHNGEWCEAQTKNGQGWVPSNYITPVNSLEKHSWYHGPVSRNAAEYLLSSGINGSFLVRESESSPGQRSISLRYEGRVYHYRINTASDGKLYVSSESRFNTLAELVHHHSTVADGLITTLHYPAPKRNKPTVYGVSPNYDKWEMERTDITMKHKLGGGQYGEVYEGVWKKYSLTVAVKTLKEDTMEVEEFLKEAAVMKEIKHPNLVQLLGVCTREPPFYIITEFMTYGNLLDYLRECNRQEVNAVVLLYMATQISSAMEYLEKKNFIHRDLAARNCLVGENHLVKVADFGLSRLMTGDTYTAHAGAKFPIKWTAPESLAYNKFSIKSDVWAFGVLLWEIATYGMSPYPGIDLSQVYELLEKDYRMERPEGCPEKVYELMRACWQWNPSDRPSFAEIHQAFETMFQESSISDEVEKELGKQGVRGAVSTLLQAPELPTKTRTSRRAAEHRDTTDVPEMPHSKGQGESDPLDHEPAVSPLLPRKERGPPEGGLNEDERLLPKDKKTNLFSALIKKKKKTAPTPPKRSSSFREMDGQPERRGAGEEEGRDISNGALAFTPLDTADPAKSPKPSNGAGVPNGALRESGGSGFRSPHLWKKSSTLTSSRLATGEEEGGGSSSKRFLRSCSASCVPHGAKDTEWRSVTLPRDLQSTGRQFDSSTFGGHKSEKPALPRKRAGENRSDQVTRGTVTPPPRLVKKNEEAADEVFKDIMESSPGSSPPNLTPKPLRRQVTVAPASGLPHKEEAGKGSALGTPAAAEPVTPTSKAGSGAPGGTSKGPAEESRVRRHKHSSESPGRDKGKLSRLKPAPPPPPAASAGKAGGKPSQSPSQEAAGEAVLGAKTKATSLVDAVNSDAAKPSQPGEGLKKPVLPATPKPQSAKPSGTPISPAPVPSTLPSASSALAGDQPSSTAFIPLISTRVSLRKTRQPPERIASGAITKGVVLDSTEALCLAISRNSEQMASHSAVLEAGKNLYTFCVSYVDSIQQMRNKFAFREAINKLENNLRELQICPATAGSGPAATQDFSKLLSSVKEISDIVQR
Aurora kinase B (Homo sapiens), sequence (Q96GD4 whole entry): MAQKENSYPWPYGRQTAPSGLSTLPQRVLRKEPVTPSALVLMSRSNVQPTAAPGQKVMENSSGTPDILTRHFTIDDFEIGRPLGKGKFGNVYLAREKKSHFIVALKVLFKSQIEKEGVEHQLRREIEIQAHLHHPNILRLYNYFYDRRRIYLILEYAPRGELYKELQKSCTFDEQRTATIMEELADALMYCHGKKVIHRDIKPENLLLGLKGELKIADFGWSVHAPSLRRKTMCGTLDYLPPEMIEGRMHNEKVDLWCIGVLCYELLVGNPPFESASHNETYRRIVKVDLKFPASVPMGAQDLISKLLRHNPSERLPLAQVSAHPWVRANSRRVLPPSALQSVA
Cell division cycle 7-related protein kinase (Homo sapiens), sequence (O00311 whole entry, looked up): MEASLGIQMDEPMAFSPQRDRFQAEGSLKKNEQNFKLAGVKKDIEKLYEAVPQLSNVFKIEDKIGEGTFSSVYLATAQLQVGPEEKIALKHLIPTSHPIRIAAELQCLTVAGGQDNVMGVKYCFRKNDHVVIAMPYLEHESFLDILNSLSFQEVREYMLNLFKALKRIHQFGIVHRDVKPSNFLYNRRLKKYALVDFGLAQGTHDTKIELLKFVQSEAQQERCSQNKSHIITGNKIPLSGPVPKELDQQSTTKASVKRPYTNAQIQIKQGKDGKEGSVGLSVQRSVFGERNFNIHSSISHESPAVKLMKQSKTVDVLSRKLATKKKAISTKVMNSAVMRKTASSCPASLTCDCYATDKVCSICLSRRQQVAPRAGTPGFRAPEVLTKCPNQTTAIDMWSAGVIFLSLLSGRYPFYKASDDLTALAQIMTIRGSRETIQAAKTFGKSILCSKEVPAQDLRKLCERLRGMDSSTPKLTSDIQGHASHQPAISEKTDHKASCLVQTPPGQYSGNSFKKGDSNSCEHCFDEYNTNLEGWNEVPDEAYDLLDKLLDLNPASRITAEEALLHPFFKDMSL

With `Brc1ccccc1CSc1ncnc2[nH]cnc12`, the inhibition entry in [1], in [2], in test [3], in [4], in [5] and in [6] was “inactive” throughout. Further, the inhibition entry in [7] and in test [9] was “inactive” each time. Moreover, the inhibition result in [8] is “Active”.

Regarding `c1ccc(CSc2ncnc3[nH]cnc23)cc1`, the inhibition result in test [1], in test [2], in test [3], in test [4], in [5] and in test [6] was “inactive” each time. Besides, the inhibition entry in test [7] and in test [9] was “inactive” in each case. Besides, the inhibition result in test [8] is “Active”.

With `Clc1cccc(CSc2ncnc3[nH]cnc23)c1`, the inhibition entry in [1], in test [2], in [3], in test [4], in [5] and in test [6] was “inactive” each time. Moreover, the inhibition result in [7] and in [9] was “inactive” in each case. The inhibition entry in test [8] is “Active”.
